From paper PMC9234671, “Molecular determinants of αVβ5 localization in flat clathrin lattices – role of αVβ5 in cell adhesion and proliferation” (Journal of Cell Science, 2022) come the findings set out here.

Format in all cases: cell-based, human
In experiment [1] the test system is GEF-H1 (phospho S886) in PA-JEB and PA-JEB/β4 keratinocytes. The experiment in a line: Western blot: GEF-H1 phosphorylation. As to conditions: after calyculin A, n=3. Here is the method: Proteins were separated by electrophoresis using a Bolt Novex 4–12% gradient Bis-Tris gels (Invitrogen) or 15% SDS-PAGE gels (made in-house), transferred to Immobilon-P transfer membranes (Millipore Corp) and blocked for at least 30 min in 2% BSA in TBST buffer (10 mM Tris-HCl pH 7.5, 150 mM NaCl and 0.3% Tween-20). Primary antibody (diluted 1:1000 in 2% BSA in TBST buffer) incubation took place overnight at 4°C. After washing twice with TBST and twice with TBS, blots were incubated for 1 h hour at room temperature with horseradish peroxidase-conjugated goat anti-mouse-IgG or goat anti-rabbit-IgG (diluted 1:3000 in 2% BSA in TBST buffer). After subsequent washing steps, the bound antibodies were detected by enhanced chemiluminescence using SuperSignal™ West Dura Extended Duration Substrate (ThermoFisher) or Clarity™ Western ECL Substrate (Bio-Rad) as described by the manufacturer. Signal intensities were quantified using ImageJ.
Fig. S4. (A) Representative western blots of phosphorylated myosin light chain (MLC) and GAPDH in PA-JEB/β4 keratinocytes treated with DMSO versus Nocodazole. […]
μm. Quantifications of β5 or β5 mutants clustering in FAs are shown in (C-E). […] Total cells analyzed per condition: 90 (WT, DMSO), 111 (WT, Noco.) (C), 40 (S>E, DMSO), 80 (S>E, Noco.) (D), 65 (S>A, DMSO), 82 (S>A, Noco.) (E). […]

Experiment [2] has as its system integrin β5 localization in PA-JEB keratinocytes. Put plainly: Immunofluorescence: integrin β5 clustering in FAs/FCLs, PA-JEB. Particulars: 5 nM calyculin A versus DMSO, 30 min, 10% FCS DMEM, three independent experiments. The source says: Fig. 3. Serine 759 and 762 are involved in regulating the localization of integrin β5. (A–C) Integrin β5 containing S759/762E or S759/762A mutations (A) were expressed in β5-deficient PA-JEB/β4 keratinocytes and the subcellular distribution of β5 was compared to β5-deficient keratinocytes expressing wild-type (WT) β5. Merged images show integrin β5 (green), vinculin (B) or clathrin (C) (red), actin (blue) and the cell nuclei (cyan). (D,E) Analysis of wild-type versus mutant integrin β5 clustering in FAs or FCLs. (F–I) PA-JEB/β4 keratinocytes were grown in 10% FCS-supplemented DMEM culture medium overnight and then treated with 5 nM calyculin A (Cal.A) or DMSO (vehicle control) for 30 min prior to fixation. Merged images show integrin β5 (green), vinculin (F) or clathrin (H) (red), actin (blue) and the cell nuclei (cyan), quantifications of β5 clustering in FAs or FCLs are shown in G,I. (J,K) Analysis of integrin β5 clustering in FAs or FCLs in PA-JEB keratinocytes after treatment with Cal.A. Representative confocal microscopy images are shown in Fig. S3. Scale bars: 20 μm. Data were obtained from three independent experiments. Total cells analyzed per condition: 109 (WT), 116 (S>E), 103 (S>A) (D), 81 (WT), 77 (S>E), 101 (S>A) (E), 126 and 123 (G), 111 and 101 (I), 106 and 102 (J), 115 and 109 (K). ****P<0.0001 (Mann–Whitney U-test). […]

Experiment [3] deals with integrin β5 localization in PA-JEB/β4 keratinocytes. Put plainly: Immunofluorescence: integrin β5 clustering in FAs/FCLs, PA-JEB/β4. An excerpt: Fig. 3. Serine 759 and 762 are involved in regulating the localization of integrin β5. (A–C) Integrin β5 containing S759/762E or S759/762A mutations (A) were expressed in β5-deficient PA-JEB/β4 keratinocytes and the subcellular distribution of β5 was compared to β5-deficient keratinocytes expressing wild-type (WT) β5. Merged images show integrin β5 (green), vinculin (B) or clathrin (C) (red), actin (blue) and the cell nuclei (cyan). (D,E) Analysis of wild-type versus mutant integrin β5 clustering in FAs or FCLs. (F–I) PA-JEB/β4 keratinocytes were grown in 10% FCS-supplemented DMEM culture medium overnight and then treated with 5 nM calyculin A (Cal.A) or DMSO (vehicle control) for 30 min prior to fixation. Merged images show integrin β5 (green), vinculin (F) or clathrin (H) (red), actin (blue) and the cell nuclei (cyan), quantifications of β5 clustering in FAs or FCLs are shown in G,I. (J,K) Analysis of integrin β5 clustering in FAs or FCLs in PA-JEB keratinocytes after treatment with Cal.A. Representative confocal microscopy images are shown in Fig. S3. Scale bars: 20 μm. Data were obtained from three independent experiments. Total cells analyzed per condition: 109 (WT), 116 (S>E), 103 (S>A) (D), 81 (WT), 77 (S>E), 101 (S>A) (E), 126 and 123 (G), 111 and 101 (I), 106 and 102 (J), 115 and 109 (K). ****P<0.0001 (Mann–Whitney U-test). Box plots range from the 25th to 75th percentile; central line indicates the median; whiskers show smallest to largest value.
PA-JEB/β4 keratinocytes were seeded on glass coverslips and cultured in complete KGM medium for 24 h, and then treated with DMEM plus 10% FCS for 24 h. Other cell lines were seeded on glass coverslips and cultured in DMEM plus 10% FCS. Cells were fixed with 2% paraformaldehyde (PFA) for 10 min, permeabilized with 0.2% Triton X-100 for 5 min, and blocked with PBS containing 2% bovine serum albumin (BSA; Sigma) for at least 30 min. Next, cells were incubated with the primary antibodies for 1 h at room temperature. Cells were washed three times before incubation with the secondary antibodies for 1 h. Additionally, nuclei were stained with DAPI, and filamentous actin was visualized using Alexa Fluor 488 or 647-conjugated phalloidin (Invitrogen). After three washing steps with PBS, the coverslips were mounted onto glass slides in Mowiol. Images were obtained using a Leica TCS SP5 confocal microscope with a 63× (NA 1.4) oil objective.
Image analysis was performed using Fiji (ImageJ) ([Schindelin et al., 2012]; [Schneider et al., 2012]). To quantify integrin clustering in FAs (based on vinculin staining) versus FCLs (clathrin staining), background was subtracted in both channels using a bilateral filter and the region of interest (ROI) was selected at the cell periphery. Colocalization of integrin clusters and FAs or FCLs was determined using the Image Calculator (command ‘multiply’) on both channels and calculating the area of overlapping clusters as a percentage of the total integrin cluster area per cell using the Analyze Particle function.

`COC[C@@H]([C@H](O)[C@H](O)C(=O)NCC[C@H](C)c1nc(/C=C/C[C@@H]2O[C@]3(C[C@@H](O)[C@@H]2C)O[C@H]([C@H](C[C@H](O)[C@H](C)[C@H](O)[C@H](C)/C=C(C)/C(C)=C/C=C/C(C)=C\C#N)OC)[C@H](OP(=O)(O)O)C3(C)C)co1)N(C)C` [calyculin A]: the “phosphorylation of GEF-H1” value in experiment [1] is reported as “increase in the phosphorylation of GEF-H1”. For the same compound, in experiment [2] (colocalization with clathrin), the “localization of integrin β5 in FCLs, PA-JEB” value is recorded as “increased the localization in FCLs”. Further, the “localization of integrin β5 in FAs, PA-JEB” value in experiment [2] (colocalization with vinculin) is recorded as “reduced the localization of integrin β5 in FAs”. In addition, the “localization of integrin β5 in FAs, PA-JEB/β4” value in experiment [3] (5 nM calyculin A versus DMSO, 30 min, 10% FCS DMEM, colocalization with vinculin, three independent experiments) is “decreased the localization of integrin β5 in FAs”. In addition, the “redistribution of the integrin” value in experiment [3] (calyculin A treatment, summary in discussion) is “only led to a minor redistribution of the integrin”.
